Reference: ChEMBL document CHEMBL3992518, “Peptide Macrocycle Inhibitor of Coagulation Factor XII with Subnanomolar Affinity and High Target Selectivity” (J Med Chem, 2017)
pKi: −log10 of the molar value. *1 amine or outer side, *2 acyl side, *3 side chain or, on linkers, in order; H or OH if unused. Where a SMILES comes first, the peptide text is derived from it. Bridges are numbered along the chain shown (N, C = ends). [ ]: non-standard residue; d: D form. TATA = O=C(CC[*:1])N1CN(C(=O)CC[*:2])CN(C(=O)CC[*:3])C1; Phe(4-guanidino) = N=C(N)Nc1ccc(C[C@H](N)C(=O)O)cc1; hArg = N=C(N)NCCCC[C@H](N)C(=O)O; tBuAla = CC(C)(C)C[C@H](N)C(=O)O; hLys = NCCCCC[C@H](N)C(=O)O

Molecular target: T1, Coagulation factor XII (Homo sapiens, UniProt P00748)
T1 sequence (P00748 whole entry): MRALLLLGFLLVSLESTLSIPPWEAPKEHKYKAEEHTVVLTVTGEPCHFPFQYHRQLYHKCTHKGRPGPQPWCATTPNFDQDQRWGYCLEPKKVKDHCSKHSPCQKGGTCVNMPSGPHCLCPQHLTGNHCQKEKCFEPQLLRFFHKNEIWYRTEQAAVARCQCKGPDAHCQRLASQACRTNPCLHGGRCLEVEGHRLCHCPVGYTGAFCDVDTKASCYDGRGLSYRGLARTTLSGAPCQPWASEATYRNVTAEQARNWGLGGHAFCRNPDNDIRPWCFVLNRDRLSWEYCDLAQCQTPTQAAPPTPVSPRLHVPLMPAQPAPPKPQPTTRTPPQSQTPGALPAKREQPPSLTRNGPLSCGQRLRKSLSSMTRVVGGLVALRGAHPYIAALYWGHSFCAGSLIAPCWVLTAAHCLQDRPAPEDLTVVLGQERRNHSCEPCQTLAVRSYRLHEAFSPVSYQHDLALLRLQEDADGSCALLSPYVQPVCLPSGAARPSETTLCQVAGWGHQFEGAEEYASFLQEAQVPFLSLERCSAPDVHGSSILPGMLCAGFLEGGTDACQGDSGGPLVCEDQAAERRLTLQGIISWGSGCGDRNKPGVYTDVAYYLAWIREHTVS
Assay: Inhibition of human beta factor 12a using fluorogenic substrate Boc-Gln-Gly-Arg-AMC preincubated for 10 mins followed by addition of substrate measured every min for 30 mins

Structure (SMILES) | pKi
CC(C)C[C@@H]1NC(=O)[C@H](CCC(N)=O)NC(=O)[C@H](CCCNC(=N)N)NC(=O)[C@@H]2CSCCC(=O)N3CN(CN(C3)C(=O)CCSC[C@H](NC(=O)[C@@H](N)CCCNC(=N)N)C(=O)N[C@@H](Cc3ccccc3)C(=O)N[C@@H](CCCCNC(=N)N)C(=O)N[C@@H](CC(C)C)C(=O)N3CCC[C@H]3C(=O)N2)C(=O)CCSC[C@@H](C(=O)N[C@@H](CCCNC(=N)N)C(=O)N[C@@H](Cc2c[nH]c3ccccc23)C(=O)O)NC(=O)[C@H](CCCNC(=N)N)NC1=O (H-RCF[hArg]LPCRQLRCRW-OH; linker 2-7-12 via TATA) | 7.15
CC(C)C[C@@H]1NC(=O)[C@H](CCC(N)=O)NC(=O)[C@H](CCCNC(=N)N)NC(=O)[C@@H]2CSCCC(=O)N3CN(CN(C3)C(=O)CCSC[C@H](NC(=O)[C@@H](N)CCCNC(=N)N)C(=O)N[C@@H](C/C=C/c3ccccc3)C(=O)N[C@@H](CCCNC(=N)N)C(=O)N[C@@H](CC(C)C)C(=O)N3CCC[C@H]3C(=O)N2)C(=O)CCSC[C@@H](C(=O)N[C@@H](CCCNC(=N)N)C(=O)N[C@@H](Cc2c[nH]c3ccccc23)C(=O)O)NC(=O)[C@H](CCCNC(=N)N)NC1=O | 6.94
CC(C)C[C@@H]1NC(=O)[C@H](CCC(N)=O)NC(=O)[C@H](CCCNC(=N)N)NC(=O)[C@@H]2CSCCC(=O)N3CN(CN(C3)C(=O)CCSC[C@H](NC(=O)[C@@H](N)CCCNC(=N)N)C(=O)N[C@@H](Cc3ccc(I)cc3)C(=O)N[C@@H](CCCNC(=N)N)C(=O)N[C@@H](CC(C)C)C(=O)N3CCC[C@H]3C(=O)N2)C(=O)CCSC[C@@H](C(=O)N[C@@H](CCCNC(=N)N)C(=O)N[C@@H](Cc2c[nH]c3ccccc23)C(=O)O)NC(=O)[C@H](CCCNC(=N)N)NC1=O | 7.04
CCC(CC)C1NC(=O)[C@H](CCC(N)=O)NC(=O)[C@H](CCCNC(=N)N)NC(=O)[C@@H]2CSCCC(=O)N3CN(CN(C3)C(=O)CCSC[C@H](NC(=O)[C@@H](N)CCCNC(=N)N)C(=O)N[C@@H](Cc3ccccc3)C(=O)N[C@@H](CCCNC(=N)N)C(=O)N[C@@H](CC(C)C)C(=O)N3CCC[C@H]3C(=O)N2)C(=O)CCSC[C@@H](C(=O)N[C@@H](CCCNC(=N)N)C(=O)N[C@@H](Cc2c[nH]c3ccccc23)C(=O)O)NC(=O)[C@H](CCCNC(=N)N)NC1=O (stereo partly specified) | 7.42
CC(C)C[C@@H]1NC(=O)[C@H](CCC(N)=O)NC(=O)[C@H](CCCNC(=N)N)NC(=O)[C@@H]2CSCCC(=O)N3CN(CN(C3)C(=O)CCSC[C@H](NC(=O)[C@@H](N)CCCNC(=N)N)C(=O)N[C@@H](Cc3ccccc3)C(=O)N[C@@H](CCCCCN)C(=O)N[C@@H](CC(C)C)C(=O)N3CCC[C@H]3C(=O)N2)C(=O)CCSC[C@@H](C(=O)N[C@@H](CCCNC(=N)N)C(=O)N[C@@H](Cc2c[nH]c3ccccc23)C(=O)O)NC(=O)[C@H](CCCNC(=N)N)NC1=O (H-RCF[hLys]LPCRQLRCRW-OH; linker 2-7-12 via TATA) | 7.29
CC(C)C[C@@H]1NC(=O)[C@H](CCC(N)=O)NC(=O)[C@H](CCCNC(=N)N)NC(=O)[C@@H]2CSCCC(=O)N3CN(CN(C3)C(=O)CCSC[C@H](NC(=O)[C@@H](N)CCCNC(=N)N)C(=O)N[C@@H](Cc3ccccc3)C(=O)N[C@@H](CCCNC(=N)N)C(=O)N[C@@H](CC(C)C)C(=O)N3CCC[C@H]3C(=O)N2)C(=O)CCSC[C@@H](C(=O)O)NC(=O)[C@H](CCCNC(=N)N)NC1=O (H-RCFRLPCRQLRC-OH; linker 2-7-12 via TATA) | 8.03
CC(C)C[C@@H]1NC(=O)[C@H](CCC(N)=O)NC(=O)[C@H](CCCNC(=N)N)NC(=O)[C@@H]2CSCCC(=O)N3CN(CN(C3)C(=O)CCSC[C@H](NC(=O)[C@@H](N)CCCNC(=N)N)C(=O)N[C@@H](Cc3ccccc3)C(=O)N[C@@H](CCCNC(=N)N)C(=O)N[C@@H](CC(C)(C)C)C(=O)N3CCC[C@H]3C(=O)N2)C(=O)CCSC[C@@H](C(=O)N[C@@H](CCCNC(=N)N)C(=O)N[C@@H](Cc2c[nH]c3ccccc23)C(=O)O)NC(=O)[C@H](CCCNC(=N)N)NC1=O (H-RCFR[tBuAla]PCRQLRCRW-OH; linker 2-7-12 via TATA) | < 5.52
CC(C)C[C@@H]1NC(=O)[C@H](CCC(N)=O)NC(=O)[C@H](CCCNC(=N)N)NC(=O)[C@@H]2CSCCC(=O)N3CN(CN(C3)C(=O)CCSC[C@H](NC(=O)[C@@H](N)CCCNC(=N)N)C(=O)N[C@@H](C)C(=O)N[C@@H](CCCNC(=N)N)C(=O)N[C@@H](CC(C)C)C(=O)N3CCC[C@H]3C(=O)N2)C(=O)CCSC[C@@H](C(=O)N[C@@H](CCCNC(=N)N)C(=O)N[C@@H](Cc2c[nH]c3ccccc23)C(=O)O)NC(=O)[C@H](CCCNC(=N)N)NC1=O (H-RCARLPCRQLRCRW-OH; linker 2-7-12 via TATA) | 6.88
CC(C)C[C@@H]1NC(=O)[C@H](CCC(N)=O)NC(=O)[C@H](CCCNC(=N)N)NC(=O)[C@@H]2CSCCC(=O)N3CN(CN(C3)C(=O)CCSC[C@H](NC(=O)[C@@H](N)CCCNC(=N)N)C(=O)N[C@@H](Cc3cccnc3)C(=O)N[C@@H](CCCNC(=N)N)C(=O)N[C@@H](CC(C)C)C(=O)N3CCC[C@H]3C(=O)N2)C(=O)CCSC[C@@H](C(=O)N[C@@H](CCCNC(=N)N)C(=O)N[C@@H](Cc2c[nH]c3ccccc23)C(=O)O)NC(=O)[C@H](CCCNC(=N)N)NC1=O | 8.52
CC(C)C[C@@H]1NC(=O)[C@H](CCC(N)=O)NC(=O)[C@H](CCCNC(=N)N)NC(=O)[C@@H]2CSCCC(=O)N3CN(CN(C3)C(=O)CCSC[C@H](NC(=O)[C@@H](N)CCCNC(=N)N)C(=O)N[C@@H](Cc3ccccc3)C(=O)N[C@@H](CCCNC(=N)N)C(=O)N[C@@H](C)C(=O)N3CCC[C@H]3C(=O)N2)C(=O)CCSC[C@@H](C(=O)N[C@@H](CCCNC(=N)N)C(=O)N[C@@H](Cc2c[nH]c3ccccc23)C(=O)O)NC(=O)[C@H](CCCNC(=N)N)NC1=O (H-RCFRAPCRQLRCRW-OH; linker 2-7-12 via TATA) | < 5.52
CC(C)C[C@@H]1NC(=O)[C@H](CCC(N)=O)NC(=O)[C@H](CCCNC(=N)N)NC(=O)[C@@H]2CSCCC(=O)N3CN(CN(C3)C(=O)CCSC[C@H](NC(=O)[C@@H](N)CCCNC(=N)N)C(=O)N[C@@H](Cc3ccc(C(C)(C)C)cc3)C(=O)N[C@@H](CCCNC(=N)N)C(=O)N[C@@H](CC(C)C)C(=O)N3CCC[C@H]3C(=O)N2)C(=O)CCSC[C@@H](C(=O)N[C@@H](CCCNC(=N)N)C(=O)N[C@@H](Cc2c[nH]c3ccccc23)C(=O)O)NC(=O)[C@H](CCCNC(=N)N)NC1=O | < 6.00
CC(C)C[C@@H]1NC(=O)[C@H](CCC(N)=O)NC(=O)[C@H](CCCNC(=N)N)NC(=O)[C@@H]2CSCCC(=O)N3CN(CN(C3)C(=O)CCSC[C@H](NC(=O)[C@@H](N)CCCNC(=N)N)C(=O)N[C@@H](Cc3ccccc3)C(=O)N[C@@H](CCCNC(=N)N)C(=O)N[C@@H](CC(C)C)C(=O)N3CCC[C@H]3C(=O)N2)C(=O)CCSC[C@@H](C(=O)N[C@@H](CCCNC(=N)N)C(=O)N[C@@H](Cc2c[nH]c3ccccc23)C(=O)O)NC(=O)[C@H](CCCNC(=N)N)NC1=O (H-RCFRLPCRQLRCRW-OH; linker 2-7-12 via TATA) | 7.99
CC(C)C[C@@H]1NC(=O)[C@H](CCC(N)=O)NC(=O)[C@H](CCCNC(=N)N)NC(=O)[C@@H]2CSCCC(=O)N3CN(CN(C3)C(=O)CCSC[C@H](NC(=O)[C@@H](N)CCCNC(=N)N)C(=O)N[C@@H](Cc3c[nH]c4ccccc34)C(=O)N[C@@H](CCCNC(=N)N)C(=O)N[C@@H](CC(C)C)C(=O)N3CCC[C@H]3C(=O)N2)C(=O)CCSC[C@@H](C(=O)N[C@@H](CCCNC(=N)N)C(=O)N[C@@H](Cc2c[nH]c3ccccc23)C(=O)O)NC(=O)[C@H](CCCNC(=N)N)NC1=O (H-RCWRLPCRQLRCRW-OH; linker 2-7-12 via TATA) | 7.92
CC(C)C[C@@H]1NC(=O)[C@H](CCCNC(=N)N)NC(=O)[C@H](Cc2ccccc2)NC(=O)[C@@H](NC(=O)[C@@H](N)CCCNC(=N)N)CSCCC(=O)N2CN3CN(C2)C(=O)CCSC[C@H](NC(=O)[C@@H]2CCCN2C1=O)C(=O)N[C@@H](CCCNC(=N)N)C(=O)N[C@@H](CCC(N)=O)C(=O)N[C@@H](CC(C)(C)C)C(=O)N[C@@H](CCCNC(=N)N)C(=O)N[C@H](C(=O)N[C@@H](CCCNC(=N)N)C(=O)N[C@@H](Cc1c[nH]c2ccccc12)C(=O)O)CSCCC3=O | 7.75
CC(C)C[C@@H]1NC(=O)[C@H](CCC(N)=O)NC(=O)[C@H](CCCNC(=N)N)NC(=O)[C@@H]2CSCCC(=O)N3CN(CN(C3)C(=O)CCSC[C@H](NC(=O)[C@@H](N)CCCNC(=N)N)C(=O)N[C@@H](Cc3ccccc3)C(=O)N[C@@H](Cc3ccc(NC(=N)N)cc3)C(=O)N[C@@H](CC(C)C)C(=O)N3CCC[C@H]3C(=O)N2)C(=O)CCSC[C@@H](C(=O)N[C@@H](CCCNC(=N)N)C(=O)N[C@@H](Cc2c[nH]c3ccccc23)C(=O)O)NC(=O)[C@H](CCCNC(=N)N)NC1=O (H-RCF[Phe(4-guanidino)]LPCRQLRCRW-OH; linker 2-7-12 via TATA) | 6.42
CC(C)C[C@@H]1NC(=O)[C@H](CCC(N)=O)NC(=O)[C@H](CCCNC(=N)N)NC(=O)[C@@H]2CSCCC(=O)N3CN(CN(C3)C(=O)CCSC[C@H](NC(=O)[C@@H](N)CCCNC(=N)N)C(=O)N[C@@H](Cc3ccc(F)cc3)C(=O)N[C@@H](CCCNC(=N)N)C(=O)N[C@@H](CC(C)C)C(=O)N3CCC[C@H]3C(=O)N2)C(=O)CCSC[C@@H](C(=O)N[C@@H](CCCNC(=N)N)C(=O)N[C@@H](Cc2c[nH]c3ccccc23)C(=O)O)NC(=O)[C@H](CCCNC(=N)N)NC1=O | 9.05
